From patent publication US20110281852A1 (priority 2010, published 2011)

Key:
3T3-L1 cells = assay: Oil-Red-O staining and quantification, berberine with amentoflavone in 3T3-L1 (Example 6); type: cell-based, mouse; settings: 8 days
Method: Oil-Red-O staining and quantification: Oil-Red-O Staining and its quantification were performed as previously reported. Briefly, medium was removed and cells were washed with PBS twice, fixed with 3.7% formalin at room temperature for 30 min, then rinsed with pure water, added 60% isopropanol and incubated for 5 minutes, then moved out isopropanol and stained cells with diluted Oil-Red-O solution (Oil-Red-O store solution (3 mg/ml in pure isopropanol): water=3:2) at room temperature for 10 min. Then the diluted Oil-Red-O solution was removed and cells were washed 3 times with pure water. After staining, the cells were washed twice with 70% ethanol to remove excess stain. Stained oil droplets in the cells were dissolved in isopropanol containing 4% Nonidet-P40 (Fisher Scientific, Pittsburgh, Pa., USA) shaking in 37° C. at speed 100 rpm for 1 hour, and OD values were measured at an absorbance of 490 nm and then normalized with control group.

[1] = Body weight gain, high-fat diet-induced obesity mice and normal diet mice; type: in vivo, mouse
Text: (§1) Six mice per subgroup were obtained finally.

C/EBPα = assay: Immunoblot, C/EBPα protein in epididymal fat of FD mice; type: in vivo, mouse; settings: berberine treatment
Method: (§2) RNA and protein purification and quantification from epididymal fat tissues: RNA and protein was isolated from 60 mg of epididymal fat tissues with Trizol (Invitrogen, Carlsbad, Calif., USA) following the protocol recommended by the manufacturers. RNA was dissolved in pure water and quantified at 260/280 nm, and sample integrity was checked by 1.5% agarose gel electrophoresis. Protein concentration was determined using the Micro BCA Protein Assay Kit (Fisher Scientific, Pittsburgh, Pa., USA) according to the manufacturer's instructions.
Immunoblot Analysis: Protein expression of GATA-2, GATA-3, PPARγ and C/EBPα in the control of β-actin was assessed by Western Blot. Protein samples from the same group were homogenized as previously reported (Hu and Davies, Phytomedicine (2009) 16:864-873). Protein (25 μg) was separated by polyacrylamide gel electrophoresis using the BioRad Electrophoretic System (60 V for 1 h followed by 90 V for 5 h). The proteins were then transferred to nitrocellulose membranes at 35 V overnight. […]

[2] = Serum triglyceride assay in mice; type: in vivo, mouse
Method: as §1
Serum glucose, triglyceride, cholesterol assay: Blood samples from each mouse were collected and serum was separated by centrifugation for the measurement of levels of glucose, triglyceride and total cholesterol. Serum glucose concentrations were analyzed using Glucose (HK) Assay Kit (Sigma-aldrich, Saint Louis, Mo., USA). Serum triglyceride concentrations were analyzed using Serum Triglyceride Determination Kit (Sigma-aldrich, Saint Louis, Mo., USA). Serum cholesterol concentrations were analyzed using Amplex® Red Cholesterol Assay Kit (Invitrogen, Carlsbad, Calif., USA). All experimental assays were done according to the manufacturer's instructions.

GATA-2 = assay: Immunoblot, GATA-2 protein in 3T3-L1 cells; type: cell-based, mouse; settings: DM + 1, 2, 4, 8 μM, 8 days, p<0.05
Method: Immunoblot Analysis: GATA-2 and GATA-3 protein expression were assessed by Western blot. […] The cells were washed twice with PBS, lysed in a lysis buffer (HEPES-Tx-PI buffer: 10 mM HEPES, 5 mM EDTA, 350 mM Sucrose, 1 ug/ml leupeptin, 1 ug/ml pepstatin, 1% Triton-X, 1 mM PMSF, diluted in water), processed with a 25G needle and centrifuged at 10,000 rpm for 5 min. Protein concentration was determined using the […] according to the Pierce Protein Assay Protocol. Total protein (50 μg) was used for GATA-2 and GATA-3 analysis and was separated by electrophoresis using BioRad Electrophoretic System (60 V for 1 hour followed by 90 V for 5 hours). The protein was then transferred to nitrocellulose membranes at 35 V overnight. The membrane was blocked for 1 hour at room temperature in 5% nonfat milk in Tris-buffered saline (TBS), then washed with Tween-20-TBS (TTBS, 0.1% Tween-20) three times (15 min, 5 min, 5 min), followed by incubation with primary antibodies of GATA-2 (dilution 1:500), GATA-3 (dilution 1:500), β-Actin (dilution 1:1000) at room temperature for 2 hours. The membrane was rinsed three times (15 min, 5 min, 5 min), then incubated at room temperature for 1 hour with Horseradish peroxidase-conjugated second antibody (1:10,000). The membrane was then incubated in ECL reagent for 1 minute. Protein was visualized using UVP image analysis system.

GATA-3 = assay: Immunoblot, GATA-3 protein in epididymal fat of FD mice; type: in vivo, mouse
Method: as §2
Immunoblot Analysis: Protein expression of GATA-2, GATA-3, PPARγ and C/EBPα in the control of β-actin was assessed by Western Blot. Protein samples from the same group were homogenized as previously reported (Hu and Davies, Phytomedicine (2009) 16:864-873). Protein (25 μg) was separated by polyacrylamide gel electrophoresis using the BioRad Electrophoretic System (60 V for 1 h followed by 90 V for 5 h). The proteins were then transferred to nitrocellulose membranes at 35 V overnight. The membrane was blocked for 1 h at room temperature in 5% nonfat milk in Tris-buffered saline (TBS), then washed with Tween-20-TBS (TTBS, 0.1% Tween-20) three times (15 min, 5 min, 5 min), followed by incubation with primary antibodies mouse GATA-2, GATA-3 (dilution 1:200), PPARγ, C/EBPα and β-actin (dilution 1:500) at room temperature for 2 h (all antibodies were purchased from Santa Cruz Biotechnology, Santa Cruz, Calif., USA). The membrane was rinsed three times (15 min, 5 min, 5 min), then incubated at room temperature for 1 h with horseradish peroxidase-conjugated second antibody (1:10,000). The membrane was then incubated in ECL reagent (GE Healthcare, Piscataway, N.J., USA) for 1 min. Protein was visualized using the UVP image analysis system (UVP, Upland, Calif., USA).

COc1ccc2cc3[n+](cc2c1OC)CCc1cc2c(cc1-3)OCO2.[Cl-] [berberine, Berberine (Chloride Form)]
reduction in lipid content vs no berberine treated group (3T3-L1 cells; 2 μM berberine, differentiation medium with 15 μM clozapine): 26% | reduction in lipid content vs no berberine treated group (3T3-L1 cells; 2 μM berberine, differentiation medium without clozapine): 9.9% | reduction in lipid content vs no berberine treated group (3T3-L1 cells; 4 μM berberine, differentiation medium with 15 μM clozapine): 70.7% | reduction in lipid content vs no berberine treated group (3T3-L1 cells; 4 μM berberine, differentiation medium without clozapine): 59.6% | reduction in lipid content vs no berberine treated group (3T3-L1 cells; 8 μM berberine, differentiation medium with 15 μM clozapine): 88.1% | reduction in lipid content vs no berberine treated group (3T3-L1 cells; 8 μM berberine, differentiation medium without clozapine): 81.7% | reduction in lipid content vs no berberine treated group (3T3-L1 cells; 16 μM berberine, differentiation medium without clozapine): 81% | body weight gain ([1]; FD mice, 0.75 mg/kg/day i.p., 36 days (control 4.3±0.6)): 1.5±0.7 g/mouse | body weight gain ([1]; FD mice, 1.5 mg/kg/day i.p., 36 days): 1.9±0.7 g/mouse | body weight gain ([1]; FD mice, 3 mg/kg/day i.p., 36 days): 1.4±0.5 g/mouse | body weight gain ([1]; ND mice, 3 mg/kg/day i.p., 36 days (control 2.3±0.9)): 2.5±0.7 g/mouse | quantitative protein expression of CEBP-α (C/EBPα): did not appear to be significantly changed | reduction of serum triglyceride level vs control treated group ([2]; FD mice, 0.75 mg/kg/day): 31.2% | serum triglyceride level ([2]; FD mice, 0.75 mg/kg/day, 36 days (control 135.6±17.0)): 93.2 ± 20.8 mg/dL | reduction of serum triglyceride level vs control treated group ([2]; FD mice, 1.5 mg/kg/day): 25.2% | serum triglyceride level ([2]; FD mice, 1.5 mg/kg/day, 36 days): 101.4 ± 9.7 mg/dL | reduction of serum triglyceride level vs control treated group ([2]; FD mice, 3 mg/kg/day): 37.8% | serum triglyceride level ([2]; FD mice, 3 mg/kg/day, 36 days): 84.3 ± 18 mg/dL | serum triglyceride level ([2]; ND mice, 3 mg/kg/day (control 70.7±14)): 70.7 ± 12.8 mg/dL | GATA-2 protein expression (GATA-2): increase | GATA-3 protein expression increased to (GATA-3; 0.75 mg/kg/day): 2.2 fold | GATA-3 protein expression increased to (GATA-3; 1.5 mg/kg/day): 2.5 fold | GATA-3 protein expression increased to (GATA-3; 3 mg/kg/day): 6.9 fold
